Values of other authors in patent publication US20200037638A1, “FORMULATIONS” (Molecular Infusions, LLC., priority 2017, published 2020).

CCCCCc1cc(O)c2c(c1)OC(C)(C)[C@@H]1CCC(C)=C[C@@H]21 [dronabinol, Δ9-tetrahydrocannabinol]
Duration of appetite stimulant effect (after administration): ≥ 24 h | Duration of action for psychoactive effects (after oral administration): 4 to 6 h | Onset of action (after oral administration): 0.5 to 1 h | Peak effect (time) (after oral administration): 2 to 4 h | Absorbed (after single oral doses): 90 to 95% | Administered dose reaching the systemic circulation (oral, first pass hepatic metabolism and high lipid solubility): 10 to 20%
